Experimental findings from patent US10091998B2, “Tetrazolinone compound and use thereof” (SUMITOMO CHEMICAL COMPANY, LIMITED, priority 2013, dated 2018) are described below.

In the assay the test system is cucumber powdery mildew fungus (Sphaerotheca fuliginea, a QoI-resistant strain, cytochrome b position 143 glycine to alanine). The class given is in vivo. To be noted: 500 ppm spray on cucumber (SAGAMI HANJIRO); investigated 8 days after inoculation.

For the molecule `Cn1nnn(-c2ccccc2OCc2ccccc2)c1=O` [1-[2-(phenylmethoxy)phenyl]-4-methyl-1,4-dihydrotetrazol-5-one], the “area of lesion on the treated plant relative to that on an untreated plant” value is at least 70%.
